One data set relates to neutrophils. Kind of data set: O2^- production stimulating activity in neutrophils. Type of data set: cell-based, C3H/HeN mice. As to conditions: 10 μg/ml, 37° C., 60 minutes, FMLP 0.1 μM; for activation at 10 µg/mL: Mus musculus, Neutrophil, 1 h, read-out: Stimulation (%), O2^- production stimulating activity. The protocol: O2^- - production stimulating activity in neutrophils was evaluated utilizing the following experimental system [see J. Exp. Med., 160, 1656-1671. (1984)]. To the peritoneal cavity of C3H/HeN mice (male, 8-9 weeks old), physiological saline containing 0.2% (w/v) casein was administered. Three hours later, peritoneal exudate cells (90% or more of which are neutrophils) were collected. These cells (1.7×10^6 cells/ml/tube) were incubated in the presence of the compound (10 μg/ml) according to the present invention at 37° C. for 60 minutes. After addition of 80 μM of cytochrome C and 0.1 μM of formyl-methionyl-leucylphenylalanine (FMLP), the mixture was incubated in the presence of or in the absence of superoxide dismutase (SOD) at 37° C. for 10 minutes. Then, SOD-inhibitable cytochrome C reduction was estimated from the difference between the absorbances at 550 nm and 541.7 nm, and from the molar absorption coefficient (16.5×10^3).O2^- production-stimulating activity in terms of Stimulation % was calculated according to the following formula: [formula]

In a further data set the test system is TNF. As to the kind of experiment: TNF-producing activity. As to conditions: 10 μg/mice i.v., serum at 90 minutes, Corynebacterium parvum-primed, L929 cytotoxicity assay. Type of data set: in vivo, ICR mice. The protocol:
TNF-producing activity was evaluated utilizing the following experimental system.
The first stimulating agent, 5% Corynebacterium parvum suspension (0.2 ml physiological saline solution), was intravenously administered to ICR mice (female, 6-7 week-aged). Nine days later, the second stimulating agent, the compound of the present invention, was intravenously administered to the same mice at 10 μg/mice. In 90 minutes, 0.5-1 ml of blood was taken from the retro orbital plexus. The obtained blood was allowed to clot at room temperature for five to six hours, and centrifuged at 7200×g for five minutes to separate the serum. The obtained serum was incubated at 56° C. for 30 minutes for inactivation before use in the following experiment.
TNF activity in the serum was measured via a cytotoxicity assay employing L929 cells. […] After 48 hours incubation at 37° C., the viable cells were fixed with methanol. These cells were then stained with 0.2% crystal violet, and the dye was extracted with 1% SDS (sodium dodecyl sulphate). Next, the absorbance at 550 nm was measured. Finally, the cytotoxicity ratio (%) was calculated according to the following formula, and the reciprocal of the dilution of the serum showing 50% cytotoxicity was determined for the TNF titer in the serum (U/ml).
[OD550 (medium alone) - OD550 (serum obtained by
administering compounds of the invention)] ×

The subject of another data set is spleen cells. Kind of data set: Mitogen activity (3H-thymidine incorporation in spleen cells). In kind it is cell-based, C3H/HeN mice. To be noted: 48 hours culture, given concentration. The protocol: The mitogen activity of the compounds according to the present invention was evaluated by utilizing the following experimental system [see Eur. J. Immunol., 14, 109-114. (1984)].
The spleens of C3H/HeN mice (males, 6-10-weeks old) were isolated in an aseptic manner. The spleen tissue was loosened in Dulbecco's modified Eagle medium (DMEM) and then subjected to a stainless mesh in order to filter the spleen cells. Next, erythrocytes contained in the collected cells were hemolyzed, and the obtained cells were suspended in RPMI 1640 medium containing 5% FBS for subsequent use.
Evaluation of mitogenic activity of the compounds according to the present invention was conducted by measuring the amount of ^3 H-thymidine incorporated into the cells during culturing of the cells which were treated with the compounds according to the present invention. First, the spleen cells were transferred to a 96-well plate at 5×10^5 cells/well (100 μl). To each well, the compound according to the present invention at a given concentration (100 μl) was added, and the obtained solution in each well was cultured under 5% CO2 at 37° C. for 48 hours. After that, ^3 H-thymidine was added at 1 μCi/well (50 μl), followed by culturing for four hours. The obtained cells were washed with phosphate buffered saline (PBS), and the amount of ^3 H-thymidine incorporated into the cells (the amount of radioactivity) was determined using a liquid scintillation counter. The result was shown by calculating the following Stimulation Index: [formula]
On the technique in general: Uptake of a labelled nucleoside into DNA is a usual measure of proliferation.

Data set [1] relates to colony stimulating factor (CSF). As to the kind of experiment: Colony stimulating factor (CSF)-inducing activity. Type of data set: in vivo, C57BL mice. To be noted: 5 μg caudal vein, serum after six hours, colonies after seven days. The protocol: By utilizing the following experimental protocol, in vivo colony stimulating factor (CSF) inducing activity of the compounds according to the present invention was evaluated [see Immunology, 21, 427-436. (1971)].
5 μg of the present compounds according to the present invention were administered to the caudal vein of C57BL mice (male, 8-10-weeks old). After six hours, the blood was sampled from the plexus venous orbitalis of said mice. This blood was allowed to stand at 4° C. for two hours for sufficient coagulation, and then centrifuged at 1500×g. The resultant supernatant solution was collected for use as a CSF-containing serum sample.
Separately, from the femora of mice which were the same series as the mice used for sampling the serum, the bone marrow cells were sampled. Specifically, both ends of the femora isolated in an aseptic manner were cut, and an injection needle was inserted into one end to aspirate the bone marrow cells into a culture solution (DMEM). The obtained cell suspension was sufficiently stirred, washed with the culture solution several times, and suspended in the culture solution again.
Next, the cell culture prepared as described was adjusted to a final concentration of 10^5 cells/ml by utilizing a medium (DMEM) containing 0.3% agar, 25% horse serum, and 50 μM 2-mercaptoethanol. To this solution, 0.1 ml of said serum sample which had been diluted to 1/3 with said DMEM medium was added, and the obtained solution was transferred to a culture plate of 35 mm diameter. Then, the resultant culture solution was cultured under 7% CO2 at 37° C. for seven days to form colonies. Colonies as containing at least 20 unseparated cells were counted, and the numbers thus obtained were taken as indicating the CSF inducing activity of the compounds according to the present invention.

The nature of data set [2]: Lethal toxicity in galactosamine-sensitized mice. Type of data set: in vivo, C57BL mice. As to conditions: galactosamine-sensitized mice; intravenous; D-galactosamine/HCl 10 mg/mouse intraperitoneally; observed to seventh day; read-out: LD50 (galactosamine load). The protocol: (§1) Lethal toxicity in galactosamine-sensitized mice was evaluated by utilizing the following experimental system [see J. Biochem., 98, 395-406. (1985)].
(§2) To C57BL mice (male, 7-weeks old), 10 mg/mouse of D-galactosamine/HCl was intraperitoneally administered. Immediately after that, the compound of this invention was intravenously administered. After these administrations, the general condition of the mice were observed every one hour for seven hours, and every day from the following day to the seventh day.

Data set [3] deals with galactosamine-sensitized mice. As to the kind of experiment: Lethal toxicity in galactosamine-sensitized mice. Type of data set: in vivo, C57BL mice. As to conditions: intravenous; D-galactosamine/HCl 10 mg/mouse intraperitoneally; observed to seventh day; 10080 min. The protocol: as §1, §2

The source of these data is patent US5278300A, “4,6-o-hydroxyphosphoryl-glucosamine derivatives” (priority 1990, dated 1994).

Where two headings read alike, the source gives them in different places.

What is called LD50 is the dose at which mortality reaches 50%. For `CCCCCCCCCCCCCC(=O)O[C@H](CCCCCCCCCCC)CC(=O)O[C@H]1[C@H](OP(=O)(O)O)[C@@H](CO)OC(O)[C@@H]1NC(=O)C[C@H](O)CCCCCCCCCCC` (stereo partly drawn) [Control, 2-deoxy-2[(3R)-3-hydroxytetradecanamide]-4-O-phosphono-3-O-[(3R)-3-tetradecanoyloxytetradecanoyl]-D-glucopyranose], in the data set with neutrophils (Experiment 2), the “Stimulation (%), O2^- production stimulating activity” value amounted to 60%. Besides, the activation at 10 µg/mL with neutrophils (Experiment 1) came to 60%. In addition, the “The Amount of TNF in the Serum” value was 158000 U/ml in the data set with TNF (Experiment 1) and 80000 U/ml in the data set on TNF (Experiment 2). The “Stimulation Index” value in the data set on spleen cells (Experiment 1) is given as 15.8; in the data set with spleen cells (Experiment 2) it was 8.4. Also, the “The Number of Colony Formed/The number of Bone Marrow Cells (10^5)” value in data set [1] (Experiment 1) is reported as 89 Colony Formed/10^5 Bone Marrow; in data set [1] (Experiment 2) it was 53 Colony Formed/10^5 Bone Marrow. Further, the LD50 at 168 h in data set [2] was 0.003 mg/kg.

With `CCCCCCCCCCCCCC(=O)O[C@H](CCCCCCCCCCCC)C(=O)O[C@H]1[C@@H]2OP(=O)(O)OC[C@H]2OC[C@@H]1NC(=O)C[C@H](O)CCCCCCCCCCC` [Example 1, 1,5-Anhydro-2-deoxy-4,6-O-hydroxyphosphoryl-2-{(3R)-3-hydroxytetradecanamido}-3-O-{(2R)-2-tetradecanoyloxytetradecanoyl}-D-glucitol], the activation at 10 µg/mL with neutrophils (Experiment 1) came to 55%. Besides, the “The Amount of TNF in the Serum” value in the data set with TNF (Experiment 1) is recorded as 133000 U/ml. For the same molecule, the “Stimulation Index” value in the data set on spleen cells (Experiment 1) was 32.1. For the same molecule, the “The Number of Colony Formed/The number of Bone Marrow Cells (10^5)” value in data set [1] (Experiment 1) was 153 Colony Formed/10^5 Bone Marrow. For the same molecule, the 50% lethal dose (LD50) at 168 h in data set [2] was determined as 0.0313 mg/kg.

Take `CCCCCCCCCCCCCCC(OC(=O)CCCCCCCCCCC)C(=O)O[C@H]1[C@@H]2OP(=O)(O)OC[C@H]2OC[C@@H]1NC(=O)C[C@H](O)CCCCCCCCC` (stereo partly drawn) [Example 2, 1,5-Anhydro-2-deoxy-3-O-{(2RS)-2-dodecanoyloxyhexadecanoyl}-2-{(3R)-3-hydroxydodecanamido}-4,6-O-hydroxyphosphoryl-D-glucitol]: the “The Amount of TNF in the Serum” value with TNF (Experiment 2) came out at 102000 U/ml.

Take `CCCCCCCCCCCCCCC(CCCCCCCCCCCC)C(=O)O[C@H]1[C@@H]2OP(=O)(O)OC[C@H]2OC[C@@H]1NC(=O)C[C@H](O)CCCCCCCCCCC` (stereo partly drawn) [Example 4, 1,5-Anhydro-2-deoxy-3-O-{(2RS)-2-dodecylhexadecanoyl}-4,6-O-hydroxyphosphoryl-2-{(3R)-3-hydroxytetradecanamido}-D-glucitol]: in the data set on neutrophils (Experiment 2), the activation at 10 µg/mL turned out to be 55%. Moreover, in the data set with spleen cells (Experiment 2), the “Stimulation Index” value was determined as 20.7. Moreover, in data set [1] (Experiment 2), the “The Number of Colony Formed/The number of Bone Marrow Cells (10^5)” value is recorded as 66 Colony Formed/10^5 Bone Marrow. For the same molecule, the median lethal dose (LD50) at 168 h in data set [2] came out at 0.0711 mg/kg.

`CCCCCCCCCCCCCC(=O)O[C@H](CCCCCCCCCCC)CC(=O)O[C@@H]1[C@@H](NC(=O)C[C@@H](CCCCCCCCCCC)OC(=O)CCCCCCCCCCC)[C@H](OC[C@H]2O[C@H](OP(=O)(O)O)[C@H](NC(=O)C[C@H](O)CCCCCCCCCCC)[C@@H](OC(=O)C[C@H](O)CCCCCCCCCCC)[C@@H]2O)O[C@H](CO)[C@H]1OP(=O)(O)O` [Lipid A]: the “LD50 (galactosamine load)” value in data set [3] turned out to be 0.0003 mg/kg.
